Reference: PubChem BioAssay (NCI)
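Assay format: 96-well plates, 48-hour exposure. At the GI50, growth is halved. The concentration for full growth arrest is given as TGI.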

What was measured:
Assay in all cases: NCI-60 cell line screen, 48 h
786-0 renal = test system: 786-0 renal
SK-MEL-5 melanoma = test system: SK-MEL-5 melanoma
BT-549 breast = test system: BT-549 breast
TK-10 renal = test system: TK-10 renal
DU-145 prostate = test system: DU-145 prostate
UO-31 renal = test system: UO-31 renal
KM12 colon = test system: KM12 colon
OVCAR-3 ovarian = test system: OVCAR-3 ovarian
SR leukemia = test system: SR leukemia
SK-OV-3 ovarian = test system: SK-OV-3 ovarian

| SMILES | GI50 (786-0 renal) | TGI (786-0 renal) | GI50 (SK-MEL-5 melanoma) | TGI (SK-MEL-5 melanoma) | GI50 (BT-549 breast) | TGI (BT-549 breast) | GI50 (TK-10 renal) | TGI (TK-10 renal) | GI50 (DU-145 prostate) | TGI (DU-145 prostate) | GI50 (UO-31 renal) | TGI (UO-31 renal) | GI50 (KM12 colon) | TGI (KM12 colon) | GI50 (OVCAR-3 ovarian) | TGI (OVCAR-3 ovarian) | GI50 (SR leukemia) | TGI (SR leukemia) | TGI (SK-OV-3 ovarian) | GI50 (SK-OV-3 ovarian) |
| --- | --- | --- | --- | --- | --- | --- | --- | --- | --- | --- | --- | --- | --- | --- | --- | --- | --- | --- | --- | --- |
| CN(C)Cc1ccc(NC(=O)c2cncc(C#Cc3cnc(N)c4ncccc34)c2)cc1F | 1.86 µM | 3.6 µM | 1.7 µM | 3.29 µM | 19.4 µM | 39.6 µM | 14.5 µM | 34.9 µM | 1.77 µM | 3.32 µM | 2.38 µM | 4.08 µM | 1.7 µM | 3.16 µM | 2.07 µM | 3.68 µM | 1.93 µM | 5.93 µM |  |  |
| COc1ccc(S(=O)(=O)Nc2c(/C=C\c3cc(OC)c(OC)c(OC)c3)ccc(OC)c2O)cc1 | 0.375 µM | 28 µM | 0.0363 µM | 0.201 µM | 0.0501 µM | 47 µM | 0.0732 µM | 59.1 µM | 0.0425 µM | > 100 µM | 0.0619 µM | 62.4 µM | 0.0355 µM | > 100 µM | 0.0338 µM | 1.21 µM | 0.0319 µM | 16.2 µM |  |  |
| CC1C=CC(C(N)C(=O)O)O1 (stereo not given) |  | > 100 µM |  | > 100 µM |  |  |  |  |  |  |  | > 100 µM |  | > 100 µM |  | > 100 µM |  | > 100 µM | > 100 µM |  |
| CCOC(=O)c1[nH]c2cc(OC)c(OC)cc2c1CN(C)C |  | > 100 µM |  | > 100 µM |  |  |  | > 100 µM |  |  |  | > 100 µM |  | > 100 µM |  |  |  | > 100 µM | > 100 µM |  |
| COc1ccc(-c2cn(-c3ccc(OC)c(OC)c3)c(=O)[nH]2)cc1 | > 100 µM | > 100 µM | 63.3 µM | > 100 µM |  |  | > 100 µM | > 100 µM | > 100 µM | > 100 µM | > 100 µM | > 100 µM | 92.1 µM | > 100 µM | > 100 µM | > 100 µM |  |  | > 100 µM | > 100 µM |
| O=C(CCC(=O)Nc1cccc(C(F)(F)F)c1)CC(=O)c1ccc2ccccc2c1 |  | > 100 µM |  | > 100 µM |  |  |  | > 100 µM |  |  |  | > 100 µM |  | > 100 µM |  | > 100 µM |  |  | > 100 µM |  |
| CC(=O)Nc1cc2cc(NS(=O)(=O)c3ccc(Cl)c(Cl)c3)ccc2oc1=O |  | 32.4 µM |  | 58.6 µM |  | > 100 µM |  | > 100 µM |  | > 100 µM |  | > 100 µM |  | 92.3 µM |  | > 100 µM |  | > 100 µM |  |  |
| O=C(N/C(=C\c1ccccc1O)c1nc2ccccc2[nH]1)c1ccccc1 |  | > 100 µM |  | > 100 µM |  |  |  | 90.8 µM |  |  |  | > 100 µM |  | > 100 µM |  | > 100 µM |  |  | > 100 µM |  |
| C=C1C(=O)O[C@H]2[C@H]1CC/C(COC(=O)/C=C\C(=O)NCc1ccc(Cn3c(=O)sn(CCI)c3=O)cc1)=C\CC[C@@]1(C)O[C@@H]21 | 2.6 µM | 7.23 µM | 12.8 µM | 25.7 µM | 10.7 µM | 22.6 µM | 2.09 µM | 4.35 µM | 3.61 µM | 13.2 µM | 2.56 µM | 8.47 µM | 11.5 µM | 24.5 µM | 1.76 µM | 3.24 µM |  |  | 31.2 µM | 17.4 µM |
| O=C1C=C2CCCC2C(C(=O)O)(C(=O)O)C1 (stereo not given) |  | > 100 µM |  | > 100 µM |  |  |  | > 100 µM |  |  |  | > 100 µM |  | > 100 µM |  | > 100 µM |  |  | > 100 µM |  |
| COCCc1n(Cc2ccc3ccccc3c2)c2ccccc2[n+]1Cc1ccc2ccccc2c1 | 1.28 µM | 2.76 µM | 0.371 µM | 1.36 µM |  |  | 1.26 µM | 2.65 µM | 1.06 µM | 2.33 µM | 1.48 µM | 2.88 µM | 0.415 µM | 1.64 µM | 0.451 µM | 1.72 µM |  |  | 2.59 µM | 1.28 µM |
| CCCCCCCCCCNCCSS(=O)(=O)O | 4.55 µM | 14.3 µM | 2.14 µM | 5.59 µM | 6.15 µM | 21.8 µM | 5.31 µM | 17.7 µM | 1.82 µM | 3.28 µM | 3.3 µM | 12.9 µM | 1.55 µM | 2.95 µM | 1.98 µM | 3.46 µM |  |  | 7.58 µM | 2.6 µM |
| OC1CCCC2CCC[N-]C12.OC1CCCC2CCC[N-]C12.[O]=[V][OH] (stereo not given) | 7.08 µM | 24.8 µM | 5.57 µM | 46.2 µM | 6.3 µM | 52.8 µM | 44.9 µM | > 100 µM | 19.7 µM | > 100 µM | 2.13 µM | 9.29 µM | 7.24 µM | > 100 µM | 0.359 µM | 2.27 µM |  |  | 55.9 µM | 6.25 µM |
| CC(C)COC1Sc2ccccc2S1 |  | 50 µM |  |  |  |  |  | 43 µM |  |  |  | 29.4 µM |  |  |  | 34.2 µM |  |  | 43.2 µM |  |
| NS(=O)(=O)c1ccc(NC(=O)C2C(=O)C(=O)N(c3ccc(S(N)(=O)=O)cc3)C2=O)cc1 (stereo not given) |  | > 100 µM |  | > 100 µM |  |  |  | > 100 µM |  |  |  | > 100 µM |  |  |  | > 100 µM |  | > 100 µM | > 100 µM |  |
| CCC(C)C1=C(O)[N+]2([O-])Oc3ccc(C4=C(O)C(=O)C(c5ccc(O)cc5)=C(O)C4=O)cc3OC2(C(C)CC)C(=O)N1O (stereo not given) | 26.1 µM | > 100 µM | 6.82 µM | 27.3 µM | 8.74 µM | > 100 µM | 3.41 µM | > 100 µM | 30.9 µM | > 100 µM | 22.2 µM | > 100 µM | 40.3 µM | > 100 µM | 5.39 µM | 49.1 µM | 1.25 µM | 7.81 µM |  |  |
| COc1cc2c(c(OC)c1OC)-c1ccc(SC)c(=O)cc1[C@@H](NC(=O)C(F)(F)F)CC2 |  | 38.6 µM |  | 0.138 µM |  | > 100 µM |  | > 100 µM |  | > 100 µM |  | > 95.7 µM |  | < 0.0631 µM |  | 1.3 µM |  | > 100 µM |  |  |
